≈ marks a conversion by molar mass, not a printed value.
What was measured:
[1] = molecular target: T1, CMP-N-acetylneuraminate-beta-galactosamide-alpha-2,3-sialyltransferase 1 (Homo sapiens, UniProt Q11201); assay: Inhibition of ST3Gal 1 (unknown origin)
T1 sequence (Q11201 whole entry): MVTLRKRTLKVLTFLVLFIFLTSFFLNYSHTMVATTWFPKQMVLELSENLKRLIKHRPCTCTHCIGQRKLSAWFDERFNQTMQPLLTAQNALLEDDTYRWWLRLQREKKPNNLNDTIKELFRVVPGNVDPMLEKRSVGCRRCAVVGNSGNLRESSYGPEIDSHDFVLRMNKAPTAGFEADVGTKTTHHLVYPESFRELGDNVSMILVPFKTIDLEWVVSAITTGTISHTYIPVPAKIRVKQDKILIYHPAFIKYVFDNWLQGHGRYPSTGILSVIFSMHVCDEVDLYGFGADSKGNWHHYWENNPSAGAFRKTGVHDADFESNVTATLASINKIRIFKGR

[2] = molecular target: T2, 4-galactosyl-N-acetylglucosaminide 3-alpha-L-fucosyltransferase FUT5 (Homo sapiens, UniProt Q11128); assay: Uncompetitive inhibition of FucT-5 (unknown origin) using GDP-fucose as donor substrate
T2 sequence (Q11128 whole entry): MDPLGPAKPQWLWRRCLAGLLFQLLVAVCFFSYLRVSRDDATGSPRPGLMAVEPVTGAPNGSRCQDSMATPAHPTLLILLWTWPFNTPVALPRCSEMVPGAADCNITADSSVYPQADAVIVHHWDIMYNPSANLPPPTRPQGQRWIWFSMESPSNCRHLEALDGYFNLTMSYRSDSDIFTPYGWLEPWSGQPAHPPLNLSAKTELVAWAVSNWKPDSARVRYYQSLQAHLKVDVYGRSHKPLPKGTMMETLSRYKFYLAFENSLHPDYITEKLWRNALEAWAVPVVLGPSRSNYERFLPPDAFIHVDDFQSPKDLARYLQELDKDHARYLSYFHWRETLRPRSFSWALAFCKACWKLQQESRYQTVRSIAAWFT

[3] = molecular target: T2, 4-galactosyl-N-acetylglucosaminide 3-alpha-L-fucosyltransferase FUT5; assay: Non-competitive inhibition of FucT-5 (unknown origin) using LacNAc as acceptor substrate
[4] = molecular target: T2, 4-galactosyl-N-acetylglucosaminide 3-alpha-L-fucosyltransferase FUT5; assay: Inhibition of FucT-5 (unknown origin)
[5] = molecular target: T3, 4-galactosyl-N-acetylglucosaminide 3-alpha-L-fucosyltransferase FUT6 (Homo sapiens, UniProt P51993); assay: Inhibition of FucT-6 (unknown origin)
T3 sequence (P51993 whole entry): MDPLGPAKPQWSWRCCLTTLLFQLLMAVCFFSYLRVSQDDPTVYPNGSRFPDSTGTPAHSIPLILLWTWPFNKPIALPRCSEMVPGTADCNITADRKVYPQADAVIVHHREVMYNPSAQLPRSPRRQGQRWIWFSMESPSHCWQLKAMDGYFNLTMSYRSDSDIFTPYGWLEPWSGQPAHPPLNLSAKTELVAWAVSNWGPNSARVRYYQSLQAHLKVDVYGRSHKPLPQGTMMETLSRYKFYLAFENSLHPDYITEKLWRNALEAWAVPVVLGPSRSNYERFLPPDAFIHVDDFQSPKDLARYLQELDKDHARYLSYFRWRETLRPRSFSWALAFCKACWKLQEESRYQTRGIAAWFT

[6] = molecular target: T4, CMP-N-acetylneuraminate-beta-1,4-galactoside alpha-2,3-sialyltransferase (Homo sapiens, UniProt Q11203); assay: Inhibition of ST3N (unknown origin)
T4 sequence (Q11203 whole entry): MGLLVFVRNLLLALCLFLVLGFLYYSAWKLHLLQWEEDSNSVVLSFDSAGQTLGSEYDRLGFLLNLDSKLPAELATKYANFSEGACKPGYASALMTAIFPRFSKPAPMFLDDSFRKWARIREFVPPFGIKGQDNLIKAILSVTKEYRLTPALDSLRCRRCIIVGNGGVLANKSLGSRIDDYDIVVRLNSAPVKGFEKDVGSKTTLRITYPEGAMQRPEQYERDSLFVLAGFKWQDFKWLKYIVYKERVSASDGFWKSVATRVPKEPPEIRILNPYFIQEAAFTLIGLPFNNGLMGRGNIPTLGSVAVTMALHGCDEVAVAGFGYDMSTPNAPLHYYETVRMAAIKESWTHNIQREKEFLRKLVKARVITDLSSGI

[7] = molecular target: T5, Beta-galactoside alpha-2,6-sialyltransferase 1 (Homo sapiens, UniProt P15907); assay: Inhibition of ST6N (unknown origin)
T5 sequence (P15907 whole entry): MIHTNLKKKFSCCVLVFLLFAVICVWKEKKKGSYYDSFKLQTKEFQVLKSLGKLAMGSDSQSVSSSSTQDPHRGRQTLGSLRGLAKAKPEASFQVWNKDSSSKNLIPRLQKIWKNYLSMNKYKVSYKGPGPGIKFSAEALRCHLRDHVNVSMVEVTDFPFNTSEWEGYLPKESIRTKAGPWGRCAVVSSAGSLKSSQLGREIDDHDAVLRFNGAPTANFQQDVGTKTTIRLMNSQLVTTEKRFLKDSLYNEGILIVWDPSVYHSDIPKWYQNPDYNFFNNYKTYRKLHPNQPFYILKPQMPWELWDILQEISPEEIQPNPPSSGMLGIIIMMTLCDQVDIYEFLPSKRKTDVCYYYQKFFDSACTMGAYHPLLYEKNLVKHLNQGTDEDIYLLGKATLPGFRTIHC

[8] = molecular target: T5, Beta-galactoside alpha-2,6-sialyltransferase 1; assay: Inhibition of ST6Gal 1 (unknown origin)
[9] = Inhibition of bovine beta-1,4-GalT using alpha-Fucp-(1-2)-beta-Galp-O-(CH2)7-CH3 as acceptor and UDP-Gal as substrate by radiochemical assay; set-up: species or system Bos taurus
[10] = Inhibition of Candida albicans chitin synthase
[11] = molecular target: T5, Beta-galactoside alpha-2,6-sialyltransferase 1; assay: Inhibition of human ST6Gal1
[12] = molecular target: Beta-galactoside alpha-2,6-sialyltransferase 1 (Rattus norvegicus, UniProt P13721); assay: Inhibition of rat ST6Gal1
[13] = molecular target: CMP-N-acetylneuraminate-beta-1,4-galactoside alpha-2,3-sialyltransferase (Rattus norvegicus, UniProt Q02734); assay: Inhibition of rat ST3Gal3
[14] = molecular target: Alpha-(1,3)-fucosyltransferase 4 (Homo sapiens, UniProt P22083); assay: Inhibition of FucT-4 (unknown origin)
[15] = Inhibition of sialyltransferase (unknown origin); set-up: species or system Homo sapiens
[16] = tested on: Staphylococcus aureus; assay: Antimicrobial activity against methicillin-resistant Staphylococcus aureus; format: functional
[17] = Inhibition of methicillin-resistant Staphylococcus aureus MurG
[18] = molecular target: Histo-blood group ABO system transferase (Homo sapiens, UniProt P16442); assay: Inhibition of GTB (unknown origin)
[19] = Inhibition of GTA (unknown origin); set-up: species or system Homo sapiens
[20] = Inhibition of AAGlyB (unknown origin); set-up: species or system Homo sapiens
[21] = Inhibition of alpha-(1,3)-GalT (unknown origin); set-up: species or system Homo sapiens

Sequence of Histo-blood group ABO system transferase (P16442 whole entry): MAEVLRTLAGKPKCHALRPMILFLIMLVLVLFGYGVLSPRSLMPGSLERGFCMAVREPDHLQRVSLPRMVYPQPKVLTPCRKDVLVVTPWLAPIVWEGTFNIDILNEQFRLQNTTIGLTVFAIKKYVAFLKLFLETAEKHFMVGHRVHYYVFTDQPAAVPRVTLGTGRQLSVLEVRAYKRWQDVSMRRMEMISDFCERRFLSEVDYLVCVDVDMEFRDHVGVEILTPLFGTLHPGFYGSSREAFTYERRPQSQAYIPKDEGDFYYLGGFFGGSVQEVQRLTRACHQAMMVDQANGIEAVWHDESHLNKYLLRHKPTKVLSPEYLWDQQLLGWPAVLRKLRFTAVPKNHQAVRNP
Sequence of CMP-N-acetylneuraminate-beta-1,4-galactoside alpha-2,3-sialyltransferase (Rattus norvegicus, UniProt Q02734) (Q02734 whole entry): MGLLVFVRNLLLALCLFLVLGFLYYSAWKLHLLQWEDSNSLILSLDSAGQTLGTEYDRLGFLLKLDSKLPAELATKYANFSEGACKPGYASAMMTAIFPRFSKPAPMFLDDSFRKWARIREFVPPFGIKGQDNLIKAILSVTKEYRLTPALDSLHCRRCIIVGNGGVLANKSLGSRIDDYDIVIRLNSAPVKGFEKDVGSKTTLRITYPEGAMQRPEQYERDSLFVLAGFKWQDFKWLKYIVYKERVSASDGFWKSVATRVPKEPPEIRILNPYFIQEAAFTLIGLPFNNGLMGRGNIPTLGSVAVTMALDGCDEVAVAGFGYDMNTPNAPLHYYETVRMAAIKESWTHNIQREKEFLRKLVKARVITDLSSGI
Sequence of Alpha-(1,3)-fucosyltransferase 4 (P22083 whole entry): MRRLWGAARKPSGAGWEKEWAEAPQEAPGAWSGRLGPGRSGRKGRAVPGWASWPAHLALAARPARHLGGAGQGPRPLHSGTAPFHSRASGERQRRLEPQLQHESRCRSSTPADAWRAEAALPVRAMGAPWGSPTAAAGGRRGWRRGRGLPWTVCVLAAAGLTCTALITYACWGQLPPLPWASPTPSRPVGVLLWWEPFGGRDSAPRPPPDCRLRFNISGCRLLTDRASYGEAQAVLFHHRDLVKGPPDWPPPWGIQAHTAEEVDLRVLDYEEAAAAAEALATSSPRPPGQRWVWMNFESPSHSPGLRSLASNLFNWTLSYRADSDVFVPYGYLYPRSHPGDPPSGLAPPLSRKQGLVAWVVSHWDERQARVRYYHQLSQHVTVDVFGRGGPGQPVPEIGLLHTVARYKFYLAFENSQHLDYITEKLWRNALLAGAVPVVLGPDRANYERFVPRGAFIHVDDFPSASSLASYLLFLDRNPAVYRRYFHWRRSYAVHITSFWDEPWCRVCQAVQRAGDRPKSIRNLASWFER
Sequence of Beta-galactoside alpha-2,6-sialyltransferase 1 (Rattus norvegicus, UniProt P13721) (P13721 whole entry): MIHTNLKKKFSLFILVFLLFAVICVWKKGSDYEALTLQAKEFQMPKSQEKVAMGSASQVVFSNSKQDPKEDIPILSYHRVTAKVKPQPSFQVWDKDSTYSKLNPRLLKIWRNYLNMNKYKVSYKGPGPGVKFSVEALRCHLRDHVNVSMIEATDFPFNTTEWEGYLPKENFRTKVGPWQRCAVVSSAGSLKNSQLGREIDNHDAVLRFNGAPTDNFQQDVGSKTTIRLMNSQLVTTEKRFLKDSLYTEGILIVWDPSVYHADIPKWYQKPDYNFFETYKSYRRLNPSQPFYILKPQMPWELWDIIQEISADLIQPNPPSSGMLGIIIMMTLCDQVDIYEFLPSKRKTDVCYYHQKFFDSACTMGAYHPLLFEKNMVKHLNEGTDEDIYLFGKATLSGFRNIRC

Compound: C[C@@H]1CC[C@H]2C(C)(C)[C@H](O)CC[C@]2(C)[C@@]12Cc1c(O)cc(C=O)c(C=O)c1O2
- IC50 [1]: 6.7 µM
- Ki [2]: 10.7 µM
- Ki [3]: 9.7 µM
- IC50 [4]: 11.3 µM
- IC50 [5]: 20.9 µM
- IC50 [6]: 10 µM
- IC50 [7]: 0.61 µM

Compound: C[C@H](CCC(=O)O)[C@H]1CC[C@H]2[C@@H]3CC[C@@H]4C[C@H](OC(=O)[C@H](CCC(=O)O)Nc5ccc([N+](=O)[O-])c6nonc56)CC[C@]4(C)[C@H]3CC[C@]12C
- IC50 [1]: 0.88 µM
- IC50 [8]: 1.5 µM

Compound: O=Cc1ccc(-c2cn([C@@H]3O[C@H](COP(=O)(O)OP(=O)(O)O[C@H]4O[C@H](CO)[C@H](O)[C@H](O)[C@H]4O)[C@@H](O)[C@H]3O)c(=O)[nH]c2=O)s1
- Ki [9]: 39 µM

Compound: C[C@@H]([C@H](N)C(=O)N[C@H](C(=O)O)[C@H]1O[C@@H](n2ccc(=O)[nH]c2=O)[C@H](O)[C@@H]1O)[C@H](O)c1ccc(O)cn1 [NIKKOMYCIN]
- Ki [10]: 0.16 µM

Compound: O=c1cc(-c2ccc(O)c(O)c2)oc2ccccc12
- IC50 [11]: 7.1 µM
- IC50 [12]: 5.1 µM
- IC50 [13]: 1.4 µM

Compound: O=C(O)c1cc(O)c(O)c(O)c1 [GALLIC ACID]
- IC50 [14]: 14 µM
- IC50 [15]: 19 µM

Compound: C[C@]12Cc3cnn(-c4ccncc4)c3C=C1CC[C@@H]1[C@@H]2CC[C@@]2(C)[C@H]1CC[C@]2(O)C(=O)CO
- MIC [16]: 2 µg/mL (≈ 4.47 µM)
- IC50 [17]: 115 µg/mL (≈ 257 µM)

Compound: c1ccc(-c2nsc(N3CCNCC3)n2)cc1
- Ki [18]: 800 µM
- Ki [19]: 5100 µM
- Ki [20]: > 15000 µM
- Ki [21]: 6300 µM

From ChEMBL document CHEMBL3596159, “Beyond substrate analogues: new inhibitor chemotypes for glycosyltransferases” (Medchemcomm, 2014)
